Experimental data: article PMC7897990, “TriTOX: A novel Trichomonas vaginalis assay platform for high-throughput screening of compound libraries” (International Journal for Parasitology: Drugs and Drug …, 2021)
Where two headings read alike, the source gives them in different places. Positions of bridges follow the written chain, without caps; N, C: chain ends. Non-standard residues stand in square brackets, D forms with d. Residues, ends and D or L forms follow the SMILES beside them. *: point of attachment. Ileψ(thiazoline)Cys = CC[C@H](C)[C@H](N)C1=N[C@H](C(=O)*)CS1; dOrn = NCCC[C@@H](N)C(=O)O

What was measured:
[1] = system: Trichomonas vaginalis G3 trophozoites
[2] = system: nontumorigenic neonatal foreskin fibroblast (NFF) cell line
[3] = replicate 1, parasite screen at 1 µg/mL
[4] = replicate 2, parasite screen at 1 µg/mL
[5] = HTS, parasite screen at 1 µg/mL, replicate 1
[6] = HTS, parasite screen at 1 µg/mL, replicate 2
[7] = NFF fibroblast screen at 5 µg/mL, A = active, I = inactive
[8] = parasite screen at 1 µg/mL, replicate 1
[9] = parasite screen at 1 µg/mL, replicate 2
[10] = NFF_NS1 screen at 5 µg/mL, NFF cells
[11] = HTS single concentration, parasite screen 1 µg/mL, replicate 1
[12] = HTS single concentration, parasite screen 1 µg/mL, replicate 2
[13] = NFF_NS1 screen 5 µg/mL, single concentration
[14] = HTS replicate 1, parasite screen 1 µg/mL
[15] = HTS replicate 2, parasite screen 1 µg/mL
[16] = NFF fibroblasts, single concentration 5 µg/mL

Compound: CC[C@H](C)[C@H]1O[C@]2(CC[C@@H]1C)C[C@@H]1C[C@@H](C/C=C(\C)[C@@H](O[C@H]3C[C@H](OC)[C@@H](O[C@H]4C[C@H](OC)[C@@H](O)[C@H](C)O4)[C@H](C)O3)[C@@H](C)/C=C/C=C3\CO[C@@H]4[C@H](O)C(C)C=C(C(=O)O1)[C@]34O)O2 (some centres unmarked) [BIA-I1581]
- T.vaginalis_%inb_Rep1 [1, 3]: 13.44%
- T.vaginalis_%inb_Rep2 [1, 4]: 13.34%
- NFF_Activity ([2]; NFF cells, screen at 5 µg/mL): I (otherwise these were reported as inactive (I))

Compound: Viridicatumtoxin
- T.vaginalis_%inb_Rep1 [1, 5]: 8.70%
- T.vaginalis_%inb_Rep2 [1, 6]: 2.74%
- NFF_Activity [2, 7]: I (otherwise these were reported as inactive (I))

Compound: CCC(=O)[C@@H](C)[C@@H](O)[C@H](C)C[C@@H](C)[C@H]1OC(=O)C[C@@]2(O)CC=C(C)[C@H](O2)/C(C)=C/CCC[C@@H](O[C@H]2C[C@@H](O)[C@H](O)[C@@H](C)O2)/C=C/[C@H](C)C[C@H]1C [Venturicidin B]
- T.vaginalis_%inb_Rep1 [1, 5]: 9.81%
- T.vaginalis_%inb_Rep2 [1, 6]: 16.33%
- NFF_Activity [2, 7]: I (otherwise these were reported as inactive (I))

Compound: O=C1C=C2C=C[C@@H]3C[C@@]2(O1)[C@H]1CCCCN31 [BIA-S1947]
- T.vaginalis_%inb_Rep1 [1, 8]: 7.81%
- T.vaginalis_%inb_Rep2 [1, 9]: 10.30%
- NFF_Activity [2, 10]: I (otherwise these were reported as inactive (I))

Compound: COc1cc2c(c3oc(=O)c4c(c13)CCOC4=O)[C@@H]1C=CO[C@@H]1O2 [BIA-A1234]
- T.vaginalis_%inb_Rep1 [1, 11]: 14.70%
- T.vaginalis_%inb_Rep2 [1, 12]: 13.02%
- NFF_Activity [2, 13]: I (otherwise these were reported as inactive (I))

Compound: CC(=O)NCCc1cnc[nH]1 [BIA-A1737]
- T.vaginalis_%inb_Rep1 [1, 11]: 14.86%
- T.vaginalis_%inb_Rep2 [1, 12]: 38.90%
- NFF_Activity [2, 13]: I (otherwise these were reported as inactive (I))

Compound: COc1ccc2[nH]c3c(C)c4ccncc4c(C)c3c2c1 [BIA-M1952]
- T.vaginalis_%inb_Rep1 [1, 3]: 5.30%
- T.vaginalis_%inb_Rep2 [1, 4]: 7.25%
- NFF_Activity ([2]; NFF cells, screen at 5 µg/mL): A (active (A) compounds having >25% inhibitory activity)

Compound: C[C@H]1NC(=O)[C@@H]2CCCCN2C(=O)CN(C)C(=O)CNC(=O)[C@@H]2CCCCN2C(=O)[C@H](NC(=O)c2nc3ccccc3cc2O)[C@@H](C)NC(=O)[C@@H]2CCCCN2C(=O)CN(C)C(=O)CNC(=O)[C@@H]2CCCCN2C(=O)[C@@H]1NC(=O)c1nc2ccccc2cc1O [Quinaldopeptin]
- T.vaginalis_%inb_Rep1 [1, 14]: 92.82%
- T.vaginalis_%inb_Rep2 [1, 15]: 95.37%
- NFF_Activity [2, 16]: I (otherwise these were reported as inactive (I))

Compound: COc1cc(/C=C/C(=O)O)cc(OC)c1O [BIA-S1730]
- T.vaginalis_%inb_Rep1 [1, 8]: 9.02%
- T.vaginalis_%inb_Rep2 [1, 9]: 14.02%
- NFF_Activity [2, 10]: I (otherwise these were reported as inactive (I))

Compound: CS(=O)(=O)c1ccc([C@@H](O)[C@@H](CO)NC(=O)C(Cl)Cl)cc1 [BIA-T1486]
- T.vaginalis_%inb_Rep1 [1, 8]: 8.02%
- T.vaginalis_%inb_Rep2 [1, 9]: 12.00%
- NFF_Activity [2, 10]: I (otherwise these were reported as inactive (I))

Compound: Cc1c2c(c(O)c3c(O)cccc13)C(=O)[C@]1(O)C(=O)C(C(N)=O)=C(O)[C@@H](N(C)C)[C@@H]1C2.Cl [BIA-A1340]
- T.vaginalis_%inb_Rep1 [1, 11]: 6.73%
- T.vaginalis_%inb_Rep2 [1, 12]: 9.54%
- NFF_Activity [2, 13]: I (otherwise these were reported as inactive (I))

Compound: CO[C@H]1[C@H](O)[C@@H](O)[C@H](n2c3c(Cl)cccc3c3c4c(c5c6cccc(Cl)c6[nH]c5c32)C(=O)NC4=O)O[C@@H]1CO [BIA-R1075]
- T.vaginalis_%inb_Rep1 [1, 8]: 10.49%
- T.vaginalis_%inb_Rep2 [1, 9]: 13.95%
- NFF_Activity [2, 10]: I (otherwise these were reported as inactive (I))

Compound: CC(=O)O[C@@H]1C[C@]2(C)[C@@]3(CO)[C@H](O)C(=O)C(C)=C[C@H]3O[C@H]1[C@@]21CO1 [BIA-A1925]
- T.vaginalis_%inb_Rep1 [1, 11]: 9.96%
- T.vaginalis_%inb_Rep2 [1, 12]: 14.14%
- NFF_Activity [2, 13]: I (otherwise these were reported as inactive (I))

Compound: CO[C@H]1C[C@H](O[C@H]2[C@H](C)O[C@@H](O[C@@H]3/C(C)=C/C[C@@H]4C[C@@H](C[C@]5(CC[C@H](C)[C@@H](C(C)C)O5)O4)OC(=O)[C@@H]4C=C(C)[C@@H](O)[C@H]5OC/C(=C\C=C\[C@@H]3C)[C@]54O)C[C@@H]2OC)O[C@@H](C)[C@@H]1O [BIA-I1117]
- T.vaginalis_%inb_Rep1 [1, 3]: 14.71%
- T.vaginalis_%inb_Rep2 [1, 4]: 14.82%
- NFF_Activity ([2]; NFF cells, screen at 5 µg/mL): I (otherwise these were reported as inactive (I))

Compound: CC(C)[C@@H]1OC(=O)[C@@H](Cc2ccccc2)N(C)C(=O)[C@H](C(C)C)OC(=O)[C@@H](Cc2ccccc2)N(C)C(=O)[C@H](C(C)C)OC(=O)[C@@H](Cc2ccccc2)N(C)C1=O [BIA-B1238]
- T.vaginalis_%inb_Rep1 [1, 11]: 16.21%
- T.vaginalis_%inb_Rep2 [1, 12]: 4.70%
- NFF_Activity [2, 13]: I (otherwise these were reported as inactive (I))

Compound: O=c1cc(CO)occ1O [BIA-K1696]
- T.vaginalis_%inb_Rep1 [1, 3]: 13.34%
- T.vaginalis_%inb_Rep2 [1, 4]: 13.98%
- NFF_Activity ([2]; NFF cells, screen at 5 µg/mL): I (otherwise these were reported as inactive (I))

Compound: Pladienolide B
- T.vaginalis_%inb_Rep1 [1, 14]: 11.92%
- T.vaginalis_%inb_Rep2 [1, 15]: 13.15%
- NFF_Activity [2, 16]: I (otherwise these were reported as inactive (I))

Compound: CCC(C)C(=O)OC1CCC=C2C=CC(C)C(CCC3CC(O)CC(=O)O3)C21 (centres unmarked) [BIA-M1209]
- T.vaginalis_%inb_Rep1 [1, 3]: 12.32%
- T.vaginalis_%inb_Rep2 [1, 4]: 10.01%
- NFF_Activity ([2]; NFF cells, screen at 5 µg/mL): I (otherwise these were reported as inactive (I))

Compound: CC(C=CC1OC(=O)C=CC1C)=CC(C)CC=CC(C)=CC(C)C(=O)C(C)C(O)C(C)CC(C)=CC(=O)O (centres unmarked) [BIA-L1045]
- T.vaginalis_%inb_Rep1 [1, 3]: 3.96%
- T.vaginalis_%inb_Rep2 [1, 4]: 1.86%
- NFF_Activity ([2]; NFF cells, screen at 5 µg/mL): A (active (A) compounds having >25% inhibitory activity)

Compound: CN1C(=O)c2ccccc2-n2c(nc3ccccc3c2=O)C1=Cc1ccccc1 [BIA-B1646]
- T.vaginalis_%inb_Rep1 [1, 11]: 16.10%
- T.vaginalis_%inb_Rep2 [1, 12]: 13.67%
- NFF_Activity [2, 13]: I (otherwise these were reported as inactive (I))

Compound: CCCCCCCCCCC[C@@H](C[C@@H]1OC(=O)[C@H]1CCCCCC)OC(=O)[C@H](CC(C)C)NC=O [BIA-T1320]
- T.vaginalis_%inb_Rep1 [1, 8]: 10.91%
- T.vaginalis_%inb_Rep2 [1, 9]: 19.44%
- NFF_Activity [2, 10]: I (otherwise these were reported as inactive (I))

Compound: CC[C@H]1/C=C/C=C/C[C@@H](C)[C@H](O)[C@@](C)(O)C(=O)[C@@H](C)[C@H](O)[C@@H](C)C(=O)[C@@H](C)[C@H](O)[C@@H](C)/C=C/C(=O)O[C@@H]2[C@H](C)[C@H](CC1)O[C@@]1(O[C@@H](C[C@@H](C)O)[C@@H](C)CC1=O)[C@]2(C)O [Oligomycin E]
- T.vaginalis_%inb_Rep1 [1, 14]: 14.66%
- T.vaginalis_%inb_Rep2 [1, 15]: 15.07%
- NFF_Activity [2]: I (key: active (A) compounds having >25% inhibitory activity; otherwise these were reported as inactive (I))

Compound: CN1CCC2(c3cccc4c3NC3N(C)CCC43C34CCN(C)C3Nc3ccccc34)c3ccccc3NC12 (centres unmarked) [BIA-H1948]
- T.vaginalis_%inb_Rep1 [1, 3]: 8.81%
- T.vaginalis_%inb_Rep2 [1, 4]: 5.36%
- NFF_Activity ([2]; NFF cells, screen at 5 µg/mL): A (active (A) compounds having >25% inhibitory activity)

Compound: CN1C(=O)c2ccccc2-n2c(nc3ccccc3c2=O)C1Cc1ccccc1 (centres unmarked) [BIA-B1647]
- T.vaginalis_%inb_Rep1 [1, 11]: 16.42%
- T.vaginalis_%inb_Rep2 [1, 12]: 13.38%
- NFF_Activity [2, 13]: I (otherwise these were reported as inactive (I))

Compound: C[C@H]1CC[C@H]2[C@@H](C=C[C@@H]3[C@H]4[C@@H](C)O[C@]5(O)[C@@H](CO)N(C)C(=O)[C@]45C(=O)[C@@]32C)C1 [Fusarisetin A]
- T.vaginalis_%inb_Rep1 [1, 5]: 14.05%
- T.vaginalis_Absorbance_Rep1 ([1]; HTS, parasite screen at 1 µg/mL, replicate 1, raw absorbance): 0.979
- T.vaginalis_%inb_Rep2 [1, 6]: 15.01%
- T.vaginalis_Absorbance_Rep2 ([1]; HTS, parasite screen at 1 µg/mL, replicate 2, raw absorbance): 0.869
- NFF_Activity ([2]; NFF_NS1 screen at 5 µg/mL): I (otherwise these were reported as inactive (I))

Compound: CC[C@H](C)[C@H](N)C1=N[C@H](C(=O)N[C@@H](CC(C)C)C(=O)N[C@H](CCC(=O)O)C(=O)N[C@H](C(=O)N[C@H]2CCCCNC(=O)[C@H](CC(N)=O)NC(=O)[C@@H](CC(=O)O)NC(=O)[C@H](Cc3cnc[nH]3)NC(=O)[C@@H](Cc3ccccc3)NC(=O)[C@H]([C@@H](C)CC)NC(=O)[C@@H](CCCN)NC2=O)[C@@H](C)CC)CS1 [BIA-B1784] ({Ileψ(thiazoline)Cys}-L[dE]IK[dOrn]I[dF]H[dD]N; lactam 4-C)
- T.vaginalis_%inb_Rep1 [1, 11]: 15.89%
- T.vaginalis_%inb_Rep2 [1, 12]: 9.69%
- NFF_Activity [2, 13]: I (otherwise these were reported as inactive (I))

Compound: COc1cc2c(c3oc(=O)c4c(c13)CCC4=O)[C@@H]1C=CO[C@@H]1O2 [BIA-A1232]
- T.vaginalis_%inb_Rep1 [1, 11]: 12.06%
- T.vaginalis_%inb_Rep2 [1, 12]: 5.64%
- NFF_Activity [2, 13]: I (otherwise these were reported as inactive (I))

Compound: CC(=O)OC[C@]12C[C@H](O)C(C)=C[C@H]1O[C@@H]1[C@H](O)[C@@H](OC(C)=O)[C@@]2(C)[C@]12CO2 [Neosolaniol]
- T.vaginalis_%inb_Rep1 [1]: 8.23%
- T.vaginalis_%inb_Rep2 [1]: 6.22%
- NFF_Activity [2]: I (key: active (A) compounds having >25% inhibitory activity; otherwise these were reported as inactive (I))
